Results: ChEMBL document CHEMBL5518224, “Rational Design of PARP1/c-Met Dual Inhibitors for Overcoming PARP1 Inhibitor Resistance Induced by c-Met Overexpression” (J Med Chem, 2024)

Legend:
MDA-MB-231 = experiment: Antiproliferative activity against human MDA-MB-231 cells harboring wild type BRCA and c-Met amplification assessed as inhibition of cell growth incubated for 7 days by MTT assay; type: functional, cell-based; settings: MDA-MB-231, 168 h
[1] = biological target: Poly [ADP-ribose] polymerase 1 (Homo sapiens, UniProt P09874); experiment: Inhibition of PARP1 (unknown origin) using histone as substrate incubated for 45 mins by absorbance based analysis
[2] = biological target: T1, Hepatocyte growth factor receptor (Homo sapiens, UniProt P08581); experiment: Inhibition of c-Met (unknown origin) by HTRF method
[3] = biological target: T1, Hepatocyte growth factor receptor; experiment: Inhibition of c-Met (unknown origin) at 100 nM by HTRF method relative to control

T1 sequence (P08581 whole entry): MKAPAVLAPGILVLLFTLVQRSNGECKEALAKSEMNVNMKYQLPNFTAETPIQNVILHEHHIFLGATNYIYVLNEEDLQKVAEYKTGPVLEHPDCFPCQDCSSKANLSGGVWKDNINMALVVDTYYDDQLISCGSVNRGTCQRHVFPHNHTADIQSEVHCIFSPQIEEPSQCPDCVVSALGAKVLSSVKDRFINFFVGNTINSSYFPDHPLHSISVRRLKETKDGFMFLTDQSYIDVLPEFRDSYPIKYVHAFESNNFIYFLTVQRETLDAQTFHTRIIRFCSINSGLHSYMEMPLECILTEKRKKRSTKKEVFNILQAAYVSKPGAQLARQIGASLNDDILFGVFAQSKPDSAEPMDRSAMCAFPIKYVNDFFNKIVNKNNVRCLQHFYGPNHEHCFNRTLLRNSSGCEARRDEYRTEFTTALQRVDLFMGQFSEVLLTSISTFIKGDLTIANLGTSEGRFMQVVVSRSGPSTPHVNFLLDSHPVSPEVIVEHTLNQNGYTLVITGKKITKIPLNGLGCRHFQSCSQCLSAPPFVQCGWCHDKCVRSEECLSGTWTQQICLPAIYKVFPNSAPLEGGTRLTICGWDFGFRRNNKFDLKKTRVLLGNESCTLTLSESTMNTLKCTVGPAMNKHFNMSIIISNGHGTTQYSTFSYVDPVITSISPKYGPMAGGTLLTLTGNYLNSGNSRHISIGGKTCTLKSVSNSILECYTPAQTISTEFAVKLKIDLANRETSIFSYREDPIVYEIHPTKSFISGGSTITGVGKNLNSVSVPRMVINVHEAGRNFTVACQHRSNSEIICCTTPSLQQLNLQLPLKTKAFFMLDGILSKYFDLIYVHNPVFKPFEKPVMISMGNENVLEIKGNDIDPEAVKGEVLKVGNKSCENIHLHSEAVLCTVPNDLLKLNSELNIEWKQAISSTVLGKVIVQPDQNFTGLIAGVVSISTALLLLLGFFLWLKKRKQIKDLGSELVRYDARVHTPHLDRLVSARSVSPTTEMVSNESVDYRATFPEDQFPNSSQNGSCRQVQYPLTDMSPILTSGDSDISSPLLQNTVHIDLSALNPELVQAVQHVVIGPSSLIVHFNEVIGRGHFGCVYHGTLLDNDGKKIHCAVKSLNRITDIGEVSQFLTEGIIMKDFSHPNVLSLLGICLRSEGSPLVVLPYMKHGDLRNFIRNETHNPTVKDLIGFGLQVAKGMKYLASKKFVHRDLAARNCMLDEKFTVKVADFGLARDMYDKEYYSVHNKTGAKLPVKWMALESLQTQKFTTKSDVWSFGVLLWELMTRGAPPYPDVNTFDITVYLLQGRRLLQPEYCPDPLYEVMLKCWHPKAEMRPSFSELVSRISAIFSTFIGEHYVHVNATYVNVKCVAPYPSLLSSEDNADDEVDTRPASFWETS
Sequence of Poly [ADP-ribose] polymerase 1 (P09874 whole entry): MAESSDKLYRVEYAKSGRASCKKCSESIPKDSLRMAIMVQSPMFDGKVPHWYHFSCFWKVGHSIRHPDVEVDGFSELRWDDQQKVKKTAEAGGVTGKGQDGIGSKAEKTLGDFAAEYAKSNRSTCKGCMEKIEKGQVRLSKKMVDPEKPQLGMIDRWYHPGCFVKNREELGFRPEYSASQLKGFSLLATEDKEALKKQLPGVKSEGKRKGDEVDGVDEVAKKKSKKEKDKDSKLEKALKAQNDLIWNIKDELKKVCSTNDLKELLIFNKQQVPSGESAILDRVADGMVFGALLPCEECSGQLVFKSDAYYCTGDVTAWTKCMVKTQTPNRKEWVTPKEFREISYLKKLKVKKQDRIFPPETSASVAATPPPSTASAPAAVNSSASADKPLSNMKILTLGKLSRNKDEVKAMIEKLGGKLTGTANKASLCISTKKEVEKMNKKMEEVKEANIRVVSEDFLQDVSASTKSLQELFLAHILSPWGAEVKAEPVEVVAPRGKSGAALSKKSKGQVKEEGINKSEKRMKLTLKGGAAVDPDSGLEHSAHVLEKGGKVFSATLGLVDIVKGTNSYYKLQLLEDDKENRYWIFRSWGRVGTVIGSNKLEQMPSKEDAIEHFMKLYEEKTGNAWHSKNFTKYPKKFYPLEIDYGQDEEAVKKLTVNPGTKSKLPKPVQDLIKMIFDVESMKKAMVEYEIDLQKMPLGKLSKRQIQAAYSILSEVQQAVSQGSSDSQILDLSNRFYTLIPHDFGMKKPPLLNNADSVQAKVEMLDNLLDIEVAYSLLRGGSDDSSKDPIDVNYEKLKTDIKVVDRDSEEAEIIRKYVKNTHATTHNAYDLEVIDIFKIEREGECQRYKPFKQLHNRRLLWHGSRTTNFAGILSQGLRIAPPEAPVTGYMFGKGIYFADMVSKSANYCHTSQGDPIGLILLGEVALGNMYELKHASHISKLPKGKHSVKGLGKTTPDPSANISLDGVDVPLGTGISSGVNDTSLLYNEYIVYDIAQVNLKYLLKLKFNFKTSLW

With Cn1cc(-c2ccc(=O)n(CCOc3ccnc4cc(OCCN5CCN(C(=O)c6cc(Cc7n[nH]c(=O)c8ccccc78)ccc6F)CC5)ccc34)n2)cn1 the IC50 (MDA-MB-231) was 1020 nM, the IC50 [1] was 3.7 nM and the IC50 [2] was 18.2 nM.
O=C(c1cc(Cc2n[nH]c(=O)c3ccccc23)ccc1F)N1CCN(c2ccc3c(OCCn4nc(-c5ccc(C(F)(F)F)cc5)ccc4=O)ccnc3c2)CC1 showed an inhibition [3] of under 50% and an IC50 [1] of 7.3 nM.
O=C(c1cc(Cc2n[nH]c(=O)c3ccccc23)ccc1F)N1CCN(c2ccc3c(OCCn4nc(N5CCOCC5)ccc4=O)ccnc3c2)CC1 gave an IC50 [1] of 7.1 nM and an IC50 [2] of 51.2 nM.
Compound Cn1cc(-c2ccc(=O)n(CCOc3ccnc4cc(NC5CCN(C(=O)c6cc(Cc7n[nH]c(=O)c8ccccc78)ccc6F)C5)ccc34)n2)cn1 (centres undefined) has an IC50 [1] of 5.8 nM and an IC50 [2] of 42.6 nM.
